# In ChEMBL document CHEMBL3739284, “Anteaglonialides A-F and Palmarumycins CE(1)-CE(3) from Anteaglonium sp. FL0768, a Fungal Endophyte of the Spikemoss Selaginella arenicola” (J Nat Prod, 2015):
# Assay: Cytotoxicity against human CHP100 cells after 24 hrs by MTT assay
# Type: functional, cell-based
# Conditions: CHP100, 24 h
row,SMILES,IC50
1,O=C1C=CC2(Oc3cccc4cccc(c34)O2)[C@H]([C@H]2CCC(=O)O2)C1,1400 nM
2,O=C1C=C[C@H]2O[C@H]3CC(=O)[C@@H]1[C@@H]2C31Oc2cccc3cccc(c23)O1,400 nM
3,O=C1C=CC2(Oc3cccc4cccc(c34)O2)c2cccc(O)c21,1600 nM
